The text below walks through data of patent US20060100226A1, “2-Thiopyrimidinones as therapeutic agents” (priority 2004, published 2006).

Some results are limits rather than exact numbers.

The target of this assay is T1, murine MEKK2 (mMEKK2) (Mus musculus, UniProt Q61083).
T1 sequence (Q61083 1-619): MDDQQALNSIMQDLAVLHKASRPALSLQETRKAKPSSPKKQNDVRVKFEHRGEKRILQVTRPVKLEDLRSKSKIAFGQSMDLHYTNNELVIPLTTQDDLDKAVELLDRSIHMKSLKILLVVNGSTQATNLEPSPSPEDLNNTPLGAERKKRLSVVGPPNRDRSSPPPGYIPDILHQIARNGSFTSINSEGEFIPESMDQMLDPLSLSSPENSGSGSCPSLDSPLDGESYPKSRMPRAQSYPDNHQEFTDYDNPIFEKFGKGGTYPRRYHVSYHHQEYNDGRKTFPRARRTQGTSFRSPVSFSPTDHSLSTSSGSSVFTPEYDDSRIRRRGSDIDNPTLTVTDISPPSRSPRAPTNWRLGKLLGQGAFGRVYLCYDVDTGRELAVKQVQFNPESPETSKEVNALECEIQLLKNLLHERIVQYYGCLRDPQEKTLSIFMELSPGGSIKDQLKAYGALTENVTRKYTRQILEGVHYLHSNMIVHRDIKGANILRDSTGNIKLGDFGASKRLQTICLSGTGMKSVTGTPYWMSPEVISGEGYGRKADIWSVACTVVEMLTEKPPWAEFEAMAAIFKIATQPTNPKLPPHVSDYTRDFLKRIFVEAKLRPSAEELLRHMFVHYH
Kind of assay: TR-FRET kinase assay (mMEKK2/MBP). The format is biochemical. The settings on record: substrate biotin MBP, 60 minutes at room temperature. Here is the method: In one approach, MEKK2 inhibitory activity of compounds of the invention can be assessed using the time-resolved Fluorescence Resonance Energy Transfer (TR-FRET) assay detailed in Example 5. In this assay, the excitation energy of one fluorescent molecule (the donor) is transferred by a resonance mechanism to a nearby second fluorescent molecule (the acceptor), which then releases its fluorescent energy through fluorescent emission. This fluorescent energy is measured using a time-resolved fluorescence measurement protocol (LANCE high count 615/665); excitation occurred with 1,000 flashes at 325 nm, measurement was delayed by 100 μs, and data were acquired for 50 μs at 615 and 665 nm.
A TR-FRET kinase assay was used to screen potential inhibitors of MEKK2. The assay was performed as follows: Compounds to be tested were weighed and solubilized in DMSO (Sigma) to a stock concentration of 10 mM. Serial dilutions starting from 1 mM were prepared with additional DMSO. These dilutions were further diluted to 250 μM in kinase reaction buffer [20 mM Hepes pH 7.5, 5 mM MgCl2, 1 mM DTT (Dithiothreitol-Sigma), 1 mM NaVO4 (sodium vanadate-Sigma). A 25 μl aliquot of this solution was transferred to a black 96-well nonbinding surface microplate (Fisher). A stock aliquot containing […] of murine MEKK2 (mMEKK2) was diluted in the kinase reaction buffer and incubated with the compounds on the microplate for 10 minutes. A 25 μl aliquot of a 138 ng solution of biotin MBP (myelin basic protein—Upstate Biotechnology) was added to the reaction followed by 25 ul of a 25 ng solution of anti-phospho MBP antibody (Upstate Biotechnology) diluted in kinase reaction buffer. Finally an aliquot (50 μl) of a 5 uM solution of ATP (adenosine triphosphate) was added and the reaction was allowed to proceed for 60 minutes at room temperature. The reaction was stopped by the addition of 50 μL of a 12.5 ng solution of europium labeled anti-mouse IgG (Perkin Elmer) and 45 ng of Cy5 labeled streptavidin (Jackson Immunoresearch) in termination buffer (20 mM Hepes pH 7.5, 100 mM EDTA; Sigma). The assay was allowed to equilibrate for 45 minutes before placing the plate on the Victor™ plate reader. The plate was read using the 615/665 LANCE protocol.
Regarding `COc1cccc(-c2nc(SCc3ccc(NC(=O)NC4CCNCC4)cc3)[nH]c(=O)c2C#N)c1` [Example 3bb], the 50% inhibitory concentration (IC50) – broadly, the concentration that inhibits the measured activity by half – is over 40 µM.

Take `COc1cccc(-c2nc(SCc3ccc(NC(=O)c4ccccc4)cc3)[nH]c(=O)c2C#N)c1` [Example 2pp]: the half-inhibitory concentration (IC50) is under 20 µM. On to `COc1cccc(-c2nc(SCc3cccc(NC(=O)c4ccc5c(c4)OCO5)c3)[nH]c(=O)c2C#N)c1` [Example 2o], for which the IC50 is under 5 µM. Consider `COc1cccc(-c2nc(SCc3cccc(NC(=O)Nc4ccccc4)c3)[nH]c(=O)c2C#N)c1` [Example 3d], for which the IC50 is under 5 µM. Next, `N#Cc1c(-c2cccc(NCC[C@@H](O)[C@@H](O)CO)c2)nc(SCc2cccc(NC(=O)c3ccc(Cl)c(Cl)c3)c2)[nH]c1=O` [Example 4y]: under 5 µM; `COc1cccc(-c2nc(SCc3ccc(NC(=O)c4ccc(Cl)nc4)cc3)[nH]c(=O)c2C#N)c1` [Example 2yy]: under 20 µM. Regarding `COc1cccc(-c2nc(SCc3ccc(NC(=O)Cc4ccccc4)cc3)[nH]c(=O)c2C#N)c1` [Example 2vv], the IC50 is under 20 µM. Turning to `COc1cccc(-c2nc(SCc3cccc(NC(=O)c4ccc5ccccc5c4)c3)[nH]c(=O)c2C#N)c1` [Example 2d], the half-inhibitory concentration (IC50) is under 5 µM.

For `COc1cccc(-c2nc(SCc3ccc(NC(=O)c4ccc(-c5ccccn5)s4)cc3)[nH]c(=O)c2C#N)c1` [Example 2lll], the half-inhibitory concentration (IC50) is under 5 µM. `N#Cc1c(-c2cccc(O)c2)nc(SCc2cccc(NCC3CCN(c4ccncc4)CC3)c2)[nH]c1=O` [Example 4k] gave an IC50 of over 40 µM. The compound `COc1cccc(-c2nc(SCc3ccc(NC(=O)Nc4ccc(Cl)c(C(F)(F)F)c4)cc3)[nH]c(=O)c2C#N)c1` [Example 3s] had an IC50 of under 5 µM. The value for `COc1cccc(-c2nc(SCc3ccc(NC(=O)Nc4cccc(C#N)c4)cc3)[nH]c(=O)c2C#N)c1` [Example 3o] was under 20 µM. Next, `COc1cccc(-c2nc(SCc3ccc(NC(=O)c4cnn(-c5ccccc5)c4C(F)(F)F)cc3)[nH]c(=O)c2C#N)c1` [Example 2fff]: under 5 µM. The value for `COc1cccc(-c2nc(SCc3cccc(NC(=O)NCc4ccco4)c3)[nH]c(=O)c2C#N)c1` [Example 3g] was under 10 µM; that for `COc1cccc(-c2nc(SCc3cccc(NCc4cnc(N(C)C)nc4)c3)[nH]c(=O)c2C#N)c1` [Example 1z] was under 40 µM; that for `COc1cccc(-c2nc(SCc3ccc(NC(=O)c4sccc4Cl)cc3)[nH]c(=O)c2C#N)c1` [Example 2aaa] was under 5 µM. On to `COc1cccc(-c2nc(SCc3cccc(NCc4ccc(OCCN(C)c5ccncc5)cc4)c3)[nH]c(=O)c2C#N)c1` [Example 4b], for which the 50% inhibitory concentration (IC50) is over 40 µM. Take `COc1cccc(-c2nc(SCc3ccc(NC(=O)c4ccc(OC(F)(F)F)cc4)cc3)[nH]c(=O)c2C#N)c1` [Example 2qq]: the IC50 is under 5 µM. Compound `COc1cccc(-c2nc(SCc3ccc(NC(=O)NC4CCCCC4)cc3)[nH]c(=O)c2C#N)c1` [Example 3y] yielded a half-maximal inhibitory concentration (IC50) of under 1 µM.

In turn, `COc1cccc(-c2nc(SCc3cccc(NCc4ccc(Oc5cnccn5)cc4)c3)[nH]c(=O)c2C#N)c1` [Example 1m] showed an IC50 of under 20 µM. Regarding `COc1cccc(-c2nc(SCc3ccc(NC(=O)NC(c4ccccc4)c4ccccc4)cc3)[nH]c(=O)c2C#N)c1` [Example 3z], the 50% inhibitory concentration (IC50) was under 1 µM. On to `COc1cccc(-c2nc(SCc3cccc(NCc4ccc(C#N)cc4)c3)[nH]c(=O)c2C#N)c1` [Example 1u], for which the IC50 was under 10 µM.

On to `COc1cccc(-c2nc(SCc3cccc(NCc4cc(C)c(C)o4)c3)[nH]c(=O)c2C#N)c1` [Example 1w], for which the IC50 was under 5 µM. For the compound `COc1cccc(-c2nc(SCc3cccc(NCC4CCN(c5ccncc5)CC4)c3)[nH]c(=O)c2C#N)c1` [Example 4c], the half-maximal inhibitory concentration (IC50) was over 40 µM.

Turning to `COc1cccc(-c2nc(SCc3cccc(NC(=O)c4ccc(OC)cc4OC)c3)[nH]c(=O)c2C#N)c1` [Example 2u], the IC50 is under 20 µM. Regarding `COc1cccc(-c2nc(SCc3cccc(NCc4nc5ccccc5n4C)c3)[nH]c(=O)c2C#N)c1` [Example 1g], the half-maximal inhibitory concentration (IC50) was under 40 µM. `COc1cccc(-c2nc(SCc3ccc(NC(=O)Nc4cccc(Oc5ccccc5)c4)cc3)[nH]c(=O)c2C#N)c1` [Example 3v] showed a concentration for half-maximal inhibition (IC50) of under 1 µM.

`COc1cccc(-c2nc(SCCCn3cnc4c(NCc5ccccc5)ncnc43)[nH]c(=O)c2C#N)c1` [Example 4i] had an IC50 of over 40 µM. Next, `COc1cccc(-c2nc(SCc3cccc(NCc4ccc(N5CCCCC5)cc4)c3)[nH]c(=O)c2C#N)c1` [Example 1i]: under 10 µM; `CCCc1c(C(=O)Nc2ccc(CSc3nc(-c4cccc(OC)c4)c(C#N)c(=O)[nH]3)cc2)cnn1-c1ccc(Cl)cc1` [Example 2bbb]: under 1 µM; `COc1cccc(-c2nc(SCc3cccc(NCC4CCOCC4)c3)[nH]c(=O)c2C#N)c1` [Example 1o]: over 40 µM.

Compound `COc1cccc(-c2nc(SCc3cccc(NC(=O)Nc4cc(F)cc(F)c4)c3)[nH]c(=O)c2C#N)c1` [Example 3b, 1-{3-[5-Cyano-4-(3-methoxy-phenyl)-6-oxo-1,6-dihydro-pyrimidin-2-ylsulfanylmethyl]-phenyl}-3-(3,5-difluoro-phenyl)-urea] registered a half-inhibitory concentration (IC50) of under 5 µM.

In turn, `COc1cccc(-c2nc(SCc3cccc(NC(=O)CCc4ccccc4)c3)[nH]c(=O)c2C#N)c1` [Example 2e] gave a 50% inhibitory concentration (IC50) of under 5 µM.

In turn, `COc1cccc(-c2nc(SCc3ccc(NC(=O)C4CCN(C(C)=O)CC4)cc3)[nH]c(=O)c2C#N)c1` [Example 2jjj] registered an IC50 of under 20 µM.

Compound `COc1cccc(CC(=O)Nc2cccc(CSc3nc(-c4cccc(OC)c4)c(C#N)c(=O)[nH]3)c2)c1` [Example 2f] displayed an IC50 of under 10 µM. Next, `COc1cccc(-c2nc(SCc3ccc(NC(=O)C4=Cc5cc(Cl)ccc5OC4)cc3)[nH]c(=O)c2C#N)c1` [Example 2iii]: under 5 µM; `COc1cccc(-c2nc(SCc3cccc(NCc4ccc5nsnc5c4)c3)[nH]c(=O)c2C#N)c1` [Example 1y]: under 10 µM; `COc1cccc(-c2nc(SCCCCCn3cnc4c(NCc5ccccc5)ncnc43)[nH]c(=O)c2C#N)c1` [Example 4h]: over 40 µM. `N#Cc1c(-c2cccc(O)c2)nc(SCc2cccc(NC(=O)c3ccc(Cl)c(Cl)c3)c2)[nH]c1=O` [Example 4l] yielded a half-maximal inhibitory concentration (IC50) of under 5 µM. The value for `N#Cc1c(-c2cccc(Cn3cncn3)c2)nc(SCc2cccc(NC(=O)c3ccc(Cl)c(Cl)c3)c2)[nH]c1=O` [Example 4bb] was over 40 µM; that for `COc1cccc(-c2nc(SCc3ccc(NC(=O)Nc4cccc5nsnc45)cc3)[nH]c(=O)c2C#N)c1` [Example 3aa] was under 1 µM; that for `N#Cc1c(-c2cccc(F)c2)nc(SCc2cccc(NC(=O)c3ccc(Cl)c(Cl)c3)c2)[nH]c1=O` [Example 4o] was under 5 µM. The value for `COc1cccc(-c2nc(SCc3ccc(NC(=O)Nc4cc(F)cc5c4OCOC5)cc3)[nH]c(=O)c2C#N)c1` [Example 3r] was under 5 µM. For the compound `COc1cccc(-c2nc(SCc3ccc(NC(=O)Nc4cc(C(F)(F)F)ccc4Cl)cc3)[nH]c(=O)c2C#N)c1` [Example 3t], the IC50 was under 5 µM. For `COc1cccc(-c2nc(SCc3ccc(NC(=O)NCc4ccccc4)cc3)[nH]c(=O)c2C#N)c1` [Example 3l], the IC50 was under 10 µM.

With `COc1cccc(-c2nc(SCc3cccc(NC(=O)NCc4ccccc4)c3)[nH]c(=O)c2C#N)c1` [Example 3c], the half-maximal inhibitory concentration (IC50) is under 5 µM. Next, `COc1cccc(-c2nc(SCc3ccc(NC(=O)c4cccc(OC(F)(F)F)c4)cc3)[nH]c(=O)c2C#N)c1` [Example 2ddd]: under 5 µM. The value for `COc1cccc(-c2nc(SCc3ccc(NC(=O)c4cc(C(F)(F)F)cc(Cl)c4F)cc3)[nH]c(=O)c2C#N)c1` [Example 2eee] was under 5 µM.
